From US5206250A, “Bis-naphthalimides containing amide and thioamide linkers as anticancer agents” (Du Pont Merck Pharmaceutical Company, priority 1991, dated 1993) come the findings set out here.

In brackets after ≈: the same amount, converted by molar mass.

The assay deals with L1210 cells. As to the kind of experiment: In vitro Growth Inhibitory Activity Determination (L1210 cells, MTT). The class given is cell-based. Conditions: Mus musculus, 72 h, 3 days incubation at 37° C., dose of drug that inhibits the growth of cells to one half that of the control cells, read-out: ID50 (the source's name). Here is the method:
L1210 cells were maintained in RPMI=1640 a medium supplemented with 10% heat inactivated fetal bovine serum and […] mercaptomethanol/liter medium (RPMI-L).
Exponential growing L1210 cells (1×10^3 cells) in 0.1 mL medium were seeded on day 0 in a 96-well microtiter plate. On day 1, 0.1 mL aliquot of medium containing graded concentration of test analogs was added to the initial volume. After incubation at 37° C. in a humidified incubator for 3 days, the plates were centrifuged briefly and […] of the growth medium was removed. Cell cultures were incubated with […] of 3-(4, 5-dimethylthiazol-2yl)-2,5- diphenyltetrazolium bromide (MTT; 1 mg/ml in Dulbecco's phosphate buffer saline) for 4 hours at 37° C. The resulting purple formazan precipitate was solubilized with […] of 0.04 N HCl in isopropyl alcohol. Absorbance was read in a Titertek Multiskan MCC scaning well spectrophotometer (Flow Laboratories) at a test wavelength of 570 nm and a reference wavelength of 630 nm.
The absorbances were stored on a floppy disk on a IBM-XT and uploaded on to a VAX computer.
Y=((AM - Ao)/(1+(X/ID50)n))+Ao
Am=absorbance of the control cells
Ao=absorbance of the cells in the presence of highest drug conc.
ID50 =dose of drug that inhibits the growth of cells to one half that of the control cells.
As for `C[C@@H](C(=O)NCCNC(=O)[C@H](C)N1C(=O)c2cccc3cc([N+](=O)[O-])cc(c23)C1=O)N1C(=O)c2cccc3cc([N+](=O)[O-])cc(c23)C1=O` [Example 1, (S,S)-N,N'-1,2-ethanediylbis[α-methyl-5-nitro-1,3-dioxo-1H-benz[de]isoquinoline-2(3H)-acetamide]], the IC50 is 0.61 µg/mL (≈ 0.935 µM).
For `C[C@H](C(=O)NCCNC(=O)[C@@H](C)N1C(=O)c2cccc3cc([N+](=O)[O-])cc(c23)C1=O)N1C(=O)c2cccc3cc([N+](=O)[O-])cc(c23)C1=O` [Example 2, (R,R)-N,N'-1,2-ethanediylbis[α-methyl-5-nitro-1,3-dioxo-1H-benz[de]isoquinoline-2(3H)-acetamide]] the value was 0.033 µg/mL (≈ 0.0506 µM).
As for `CSCC[C@@H](C(=O)NCCCNC(=O)[C@H](CCSC)N1C(=O)c2cccc3cc([N+](=O)[O-])cc(c23)C1=O)N1C(=O)c2cccc3cc([N+](=O)[O-])cc(c23)C1=O` [Example 3], the IC50 was 0.12 µg/mL (≈ 0.153 µM).
On to `C[C@@H](C(=O)NCCCCNC(=O)[C@H](C)N1C(=O)c2cccc3cc([N+](=O)[O-])cc(c23)C1=O)N1C(=O)c2cccc3cc([N+](=O)[O-])cc(c23)C1=O` [Example 4], for which the IC50 amounted to 0.36 µg/mL (≈ 0.529 µM).
For `C[C@@H](C(=O)NCCCNC(=O)[C@H](C)N1C(=O)c2cccc3cc([N+](=O)[O-])cc(c23)C1=O)N1C(=O)c2cccc3cc([N+](=O)[O-])cc(c23)C1=O` [Example 5] the value was 0.025 µg/mL (≈ 0.0375 µM).
For `C[C@@H](C(=S)NCCNC(=S)[C@H](C)N1C(=O)c2cccc3cc([N+](=O)[O-])cc(c23)C1=O)N1C(=O)c2cccc3cc([N+](=O)[O-])cc(c23)C1=O` [Example 6, (S,S)-N,N'-1,2-ethanediylbis[α-methyl-5-nitro-1,3-dioxo-1H-benz[de]isoquinoline-2(3H)ethanethioamide]] the value was 0.184 µg/mL (≈ 0.269 µM); for `O=C(CCN1C(=O)c2cccc3cc([N+](=O)[O-])cc(c23)C1=O)NCCCCNC(=O)CCN1C(=O)c2cccc3cc([N+](=O)[O-])cc(c23)C1=O` [Example 7], 19 µg/mL (≈ 27.9 µM); for `O=C(CCN1C(=O)c2cccc3cc([N+](=O)[O-])cc(c23)C1=O)NCCCNC(=O)CCN1C(=O)c2cccc3cc([N+](=O)[O-])cc(c23)C1=O` [Example 8], greater than 20 µg/mL.
For `O=C(CCN1C(=O)c2cccc3cc([N+](=O)[O-])cc(c23)C1=O)NCCNC(=O)CCN1C(=O)c2cccc3cc([N+](=O)[O-])cc(c23)C1=O` [Example 9] the value was 15.1 µg/mL (≈ 23.1 µM).
